From ChEMBL document CHEMBL3039007, “Structure-based identification of OATP1B1/3 inhibitors” (Mol Pharmacol, 2013) come the findings set out here.

The target of series [1] is T1, Solute carrier organic anion transporter family member 1B3 (Homo sapiens, UniProt Q9NPD5).
T1 sequence (Q9NPD5 whole entry): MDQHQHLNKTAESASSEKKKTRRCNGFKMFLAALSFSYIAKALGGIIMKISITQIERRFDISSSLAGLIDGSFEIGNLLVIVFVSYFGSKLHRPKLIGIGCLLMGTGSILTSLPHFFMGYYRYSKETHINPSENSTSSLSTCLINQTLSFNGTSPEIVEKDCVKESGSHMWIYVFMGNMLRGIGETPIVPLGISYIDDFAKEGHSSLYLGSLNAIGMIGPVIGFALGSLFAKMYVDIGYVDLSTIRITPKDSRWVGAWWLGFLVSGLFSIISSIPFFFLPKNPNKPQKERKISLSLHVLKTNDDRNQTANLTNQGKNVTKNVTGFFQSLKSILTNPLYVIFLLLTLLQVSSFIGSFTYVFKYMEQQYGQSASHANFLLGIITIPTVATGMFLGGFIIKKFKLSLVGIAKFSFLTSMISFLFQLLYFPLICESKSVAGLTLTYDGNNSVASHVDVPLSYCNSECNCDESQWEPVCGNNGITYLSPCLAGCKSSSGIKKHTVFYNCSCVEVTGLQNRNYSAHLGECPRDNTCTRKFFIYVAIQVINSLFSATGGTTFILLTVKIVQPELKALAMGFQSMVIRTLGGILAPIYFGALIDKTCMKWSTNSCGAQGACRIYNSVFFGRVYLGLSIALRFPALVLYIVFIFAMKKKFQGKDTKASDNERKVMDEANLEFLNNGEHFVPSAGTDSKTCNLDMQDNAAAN
The settings on record: chinese hamster, cho, 10 µM.

Series [2] has as its target T2, Solute carrier organic anion transporter family member 1B1 (Homo sapiens, UniProt Q9Y6L6).
T2 sequence (Q9Y6L6 whole entry): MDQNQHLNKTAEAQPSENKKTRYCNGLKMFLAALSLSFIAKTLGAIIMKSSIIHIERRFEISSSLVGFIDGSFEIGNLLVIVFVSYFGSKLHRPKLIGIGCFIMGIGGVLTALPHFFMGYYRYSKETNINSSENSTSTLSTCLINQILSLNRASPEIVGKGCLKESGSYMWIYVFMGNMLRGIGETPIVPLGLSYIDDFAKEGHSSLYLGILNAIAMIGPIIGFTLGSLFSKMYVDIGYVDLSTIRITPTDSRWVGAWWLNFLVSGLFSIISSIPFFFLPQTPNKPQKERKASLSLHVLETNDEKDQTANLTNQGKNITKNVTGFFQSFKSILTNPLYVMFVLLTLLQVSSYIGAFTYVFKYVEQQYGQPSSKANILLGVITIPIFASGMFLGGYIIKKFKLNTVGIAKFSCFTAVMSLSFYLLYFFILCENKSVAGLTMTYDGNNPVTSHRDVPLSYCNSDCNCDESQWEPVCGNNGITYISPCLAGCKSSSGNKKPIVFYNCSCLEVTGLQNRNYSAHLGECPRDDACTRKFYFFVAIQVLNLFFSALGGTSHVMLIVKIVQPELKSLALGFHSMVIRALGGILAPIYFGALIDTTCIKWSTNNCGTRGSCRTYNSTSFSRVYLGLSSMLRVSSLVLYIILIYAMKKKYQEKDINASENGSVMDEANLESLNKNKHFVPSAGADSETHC
The settings on record: chinese hamster, cho, 10 µM.

For orientation: residual activity means the signal under treatment as a percentage of the control signal. As for `CC[C@@]1([C@H]2O[C@H]([C@H]3O[C@@](O)(CO)[C@H](C)C[C@@H]3C)C[C@H]2C)CC[C@H]([C@@]2(C)CC[C@]3(C[C@H](O)[C@@H](C)[C@@H]([C@H](C)[C@H](OC)[C@@H](C)C(=O)[O-])O3)O2)O1.[Na+]` [MONENSIN SODIUM], the values for the residual activity in series [1] and in series [2] were 87% and 78.11%, respectively.
On to `C[C@H]1C(=O)O[C@@H]2CCN3CC=C(COC(=O)[C@](C)(O)[C@]1(C)O)[C@H]23` [MONOCROTALINE], for which the residual activity in series [1] is 94.85%; in series [2], 100.7%.
For the molecule `Cc1ccsc1/C=C/C1=NCCCN1C.O=C(O)CC(O)(CC(=O)O)C(=O)O` [MORANTEL CITRATE], the residual activity came to 103.6% in series [1] and 115.3% in series [2].
With `O=c1c(O)c(-c2ccc(O)cc2O)oc2cc(O)cc(O)c12` [MORIN], the residual activity was 45.37% in series [1] and 24.17% in series [2].
For the molecule `CO[C@@]1(NC(=O)C(C(=O)[O-])c2ccc(O)cc2)C(=O)N2C(C(=O)[O-])=C(CSc3nnnn3C)CO[C@@H]21.[Na+].[Na+]` (stereo partly specified) [MOXALACTAM DISODIUM], the residual activity in series [1] is recorded as 92.91%; in series [2] it was 87.94%.
As for `COc1c(N2C[C@@H]3CCCN[C@@H]3C2)c(F)cc2c(=O)c(C(=O)O)cn(C3CC3)c12.Cl` [MOXIFLOXACIN HYDROCHLORIDE], the figures for the residual activity in series [1] and in series [2] were 94.01% and 106%, respectively.
Take `O=C(O)[C@@H](O)[C@H](O)[C@H](O)[C@@H](O)C(=O)O` [MUCIC ACID]: the residual activity in series [1] came to 98.98%; in series [2] it was 109%.
For the molecule `COc1ccc2c(c1)O[C@@H]1COc3cc(OC)c(OC)cc3[C@@H]1C2=O` [MUNDOSERONE], the residual activity in series [1] is recorded as 110.7%; in series [2] it was 118.1%.
For `COc1c(-c2coc3cc4c(cc3c2=O)CC(OC(C)=O)C(C)(C)O4)ccc2c1C=CC(C)(C)O2` (stereo unspecified) [MUNDULONE ACETATE], the values for the residual activity in series [1] and in series [2] were 87.47% and 71.78%, respectively.
`COc1c(-c2coc3cc4c(cc3c2=O)CC(O)C(C)(C)O4)ccc2c1C=CC(C)(C)O2` (stereo unspecified) [MUNDULONE]: the residual activity in series [1] is listed as 45.15%; in series [2], 31.23%.
For the molecule `CC1=CC2C(CC1=O)C(C)=CCC2C(C)C` (stereo unspecified) [MUUROLLADIE-3-ONE], the figures for the residual activity in series [1] and in series [2] were 117.6% and 267.7%, respectively.
The matching figures for `COc1c(C)c2c(c(O)c1C/C=C(\C)CCC(=O)O)C(=O)OC2` [MYCOPHENOLIC ACID]: 100.1% and 106.8%.
Regarding `N=C(N)NC(=O)c1nc(Cl)c(N2CCCCCC2)nc1N` [N,N-HEXAMETHYLENEAMILORIDE], the values for the residual activity in series [1] and in series [2] were 162.9% and 122.5%, respectively.
In the case of `Cl.FC(F)(F)c1cccc(N2CCNCC2)c1` [N- (3-TRIFLUOROMETHYLPHENYL)PIPERAZINE HYDROCHLORIDE (TFMPP)], the figures for the residual activity in series [1] and in series [2] were 80.23% and 106.1%, respectively.
As to `CC(=O)N[C@@H]1[C@@H](O)[C@H](O)[C@@H](CO)O[C@H]1O` [N-ACETYLGLUCOSAMINE], the results for the residual activity in series [1] and in series [2] were 82.99% and 48.98%, respectively.
Regarding `CC(=O)N1CCCC1C(=O)O` (stereo unspecified) [N-ACETYLPROLINE], the residual activity in series [1] was determined as 109.9%; in series [2], 88.69%.
For `O[C@@H]1C[C@H]2CCC[C@@H](C1)N2Cc1ccccc1` [N-BENZYLTROPAN-4-OL], the residual activity in series [1] turned out to be 88.98%; in series [2], 92.31%.
The like results for `CSCCC(NC=O)C(=O)NC(C)C(=O)O` (stereo unspecified) [N-FORMYLMETHIONYLALANINE] were, in that order, 108.8% and 100.9%.
Consider `O=C(NCO)c1cccnc1` [N-HYDROXYMETHYLNICOTINAMIDE], for which the residual activity in series [1] was 92.24%; in series [2], 121.9%.
For `CN[C@H](CC(=O)O)C(=O)O` [N-METHYL-D-ASPARTIC ACID (NMDA)], the residual activity worked out at 98.22% in series [1] and 101.6% in series [2].
With `COc1ccc2cc(CCC(C)=O)ccc2c1` [NABUMETONE], the residual activity in series [1] is recorded as 110.7%; in series [2], 203%.
The matching figures for `NC(=O)c1ccc[n+]([C@@H]2O[C@H](COP(=O)([O-])OP(=O)(O)OC[C@H]3O[C@@H](n4cnc5c(N)ncnc54)[C@H](O)[C@@H]3O)[C@@H](O)[C@H]2O)c1` [NADIDE]: 115.4% and 99.44%.
Regarding `CC(C)(C)NCC(O)COc1cccc2c1CC(O)C(O)C2` (stereo unspecified) [NADOLOL], the residual activity is 86.47% in series [1] and 76.36% in series [2].
Take `CCOc1ccc2ccccc2c1C(=O)N[C@@H]1C(=O)N2[C@@H]1SC(C)(C)[C@@H]2C(=O)[O-].O.[Na+]` [NAFCILLIN SODIUM]: the residual activity in series [1] turned out to be 114.4%; in series [2], 74.51%.
The matching figures for `CCN(CC)CCOC(=O)C(Cc1cccc2ccccc12)CC1CCCO1.O=C(O)C(=O)O` (stereo unspecified) [NAFRONYL OXALATE]: 116.5% and 74.24%.
On to `Cl.Oc1ccc2c3c1O[C@H]1[C@@H](O)CC[C@@]4(O)[C@@H](C2)N(CC2CCC2)CC[C@]314` [NALBUPHINE HYDROCHLORIDE], for which the values for the residual activity in series [1] and in series [2] were 96.59% and 86.64%, respectively.
With `COP(=O)(OC)OC(Br)C(Cl)(Cl)Br` (stereo unspecified) [NALED], the residual activity in series [1] came to 110%; in series [2], 82.68%.
As for `CCn1cc(C(=O)O)c(=O)c2ccc(C)nc21` [NALIDIXIC ACID], the residual activity was found to be 81.71% in series [1] and 63.37% in series [2].
As to `C=CCN1CC[C@]23c4c5ccc(O)c4O[C@H]2C(=O)CC[C@@]3(O)[C@H]1C5.Cl` [NALOXONE HYDROCHLORIDE], the residual activity in series [1] came to 113.7%; in series [2] it was 111.5%.
Turning to `Cl.O=C1CC[C@@]2(O)[C@H]3Cc4ccc(O)c5c4[C@@]2(CCN3CC2CC2)[C@H]1O5` [NALTREXONE HYDROCHLORIDE], the residual activity in series [1] was determined as 86.99%; in series [2] it was 71.98%.
The like results for `Cl.c1ccc2c(CC3=NCCN3)cccc2c1` [NAPHAZOLINE HYDROCHLORIDE] were, in that order, 95.85% and 100.7%.
On to `COc1ccc2cc([C@H](C)CO)ccc2c1` [NAPROXOL], for which the residual activity in series [1] came out at 102.8%; in series [2], 241.9%.
As for `O=C1C[C@@H](c2ccc(O)cc2)Oc2cc(O)cc(O)c21` [NARINGENIN], the residual activity in series [1] is 95.55%; in series [2] it was 96.26%.
The like results for `C[C@@H]1O[C@@H](O[C@H]2[C@H](Oc3cc(O)c4c(c3)O[C@H](c3ccc(O)cc3)CC4=O)O[C@H](CO)[C@@H](O)[C@@H]2O)[C@H](O)[C@H](O)[C@H]1O` [NARINGIN] were, in that order, 137.8% and 100.1%.
With `CC(C)[C@H]1CC[C@H](C(=O)N[C@H](Cc2ccccc2)C(=O)O)CC1` [NATEGLINIDE], the figures for the residual activity in series [1] and in series [2] were 70.33% and 99.81%, respectively.
The matching figures for `CN1CCOC(c2ccccc2)c2ccccc2C1` (stereo unspecified) [NEFOPAM]: 100.9% and 102.9%.
Take `COc1ccc(CCC(=O)c2c(O)cc(O[C@@H]3O[C@H](CO)[C@@H](O)[C@H](O)[C@H]3O[C@@H]3O[C@@H](C)[C@H](O)[C@@H](O)[C@H]3O)cc2O)cc1O` [NEOHESPERIDIN DIHYDROCHALCONE]: the residual activity came out at 198.2% in series [1] and 53.61% in series [2].
The matching figures for `CN(C)C(=O)Oc1cccc([N+](C)(C)C)c1.[Br-]` [NEOSTIGMINE BROMIDE]: 101.1% and 95.12%.
